The text below walks through data of patent US9765049B2, “N-cycloalkyl-N-[(fusedphenyl)methylene]-(thio)carboxamide derivatives” (BAYER CROPSCIENCE AG, priority 2013, dated 2017).

Read-outs that look alike come from different tables or passages of the source.

Data set [1] concerns Alternaria brassicae. Put plainly: In vivo preventive test on Alternaria brassicae (leaf spot on radish). The following applies: 500 ppm, radish plants, preventive spray, evaluated 6 days after inoculation. As to the method: (§1) Example A: In Vivo Preventive Test on Alternaria brassicae (Leaf Spot on Radish) [table] The active ingredients are made soluble and homogenized in a mixture of Dimethyl sulfoxide/Acetone/Tween®80 and then diluted in water to the desired concentration. The young plants of radish are treated by spraying the active ingredient prepared as described above. Control plants are treated only with an aqueous solution of Acetone/Dimethyl sulfoxide/Tween® 80. After 24 hours, the plants are contaminated by spraying the leaves with an aqueous suspension of Alternaria brassicae spores. The contaminated radish plants are incubated for 6 days at 20° C. and at 100% relative humidity.

The subject of data set [2] is Sphaerotheca fuliginea. Put plainly: In vivo preventive test on Sphaerotheca fuliginea (powdery mildew on cucurbits). The following applies: 500 ppm, gherkin plants, preventive spray, evaluated 15 days after inoculation. How it is done:
Example F: In Vivo Preventive Test on Sphaerotheca fuliginea (Powdery Mildew on Cucurbits) [table] The active ingredients are made soluble and homogenized in a mixture of Dimethyl sulfoxide/Acetone/Tween®80 and then diluted in water to the desired concentration. The young plants of gherkin are treated by spraying the active ingredient prepared as described above. Control plants are treated only with an aqueous solution of Acetone/Dimethyl sulfoxide/Tween® 80. After 24 hours, the plants are contaminated by spraying the leaves with an aqueous suspension of Sphaerotheca fuliginea spores.

Data set [3] deals with Botrytis cinerea. Put plainly: In vivo preventive test Botrytis cinerea (grey mould). The following applies: gherkin plants. How it is done: Example B: In Vivo Preventive Test Botrytis cinerea (Grey Mould) [table] The active ingredients are made soluble and homogenized in a mixture of Dimethyl sulfoxide/Acetone/Tween®80 and then diluted in water to the desired concentration. The young plants of gherkin are treated by spraying the active ingredient prepared as described above. Control plants are treated only with an aqueous solution of Acetone/Dimethyl sulfoxide/Tween® 80. After 24 hours, the plants are contaminated by spraying the leaves with an aqueous suspension of Botrytis cinerea spores. The contaminated gherkin plants are incubated for 4 to 5 days at 17° C. and at 90% relative humidity.

A short description of data set [4]: log P by HPLC on reversed-phase column (C 18), EEC Directive 79/831 Annex V.A8. The following applies: for logP: Table 1, HPLC, 40° C., 0.1% aqueous formic acid and acetonitrile. It counts as physicochemical. How it is done: In table 1, the log P values were determined in accordance with EEC Directive 79/831 Annex V.A8 by HPLC (High Performance Liquid Chromatography) on a reversed-phase column (C 18), using the method described below: Temperature: 40° C.; Mobile phases: 0.1% aqueous formic acid and acetonitrile; linear gradient from 10% acetonitrile to 90% acetonitrile. Calibration was carried out using unbranched alkan-2-ones (comprising 3 to 16 carbon atoms) with known log P values (determination of the log P values by the retention times using linear interpolation between two successive alkanones). lambda-max-values were determined using UV-spectra from 200 nm to 400 nm and the peak values of the chromatographic signals.

The subject of data set [5] is Pyrenophora teres. In words: In vivo preventive test on Pyrenophora teres (net blotch on barley). The settings on record: 500 ppm, barley plants, preventive spray, evaluated 14 days after inoculation. As to the method: Example D: In Vivo Preventive Test on Pyrenophora teres (Net Blotch on Barley) [table] The active ingredients are made soluble and homogenized in a mixture of Dimethyl sulfoxide/Acetone/Tween®80 and then diluted in water to the desired concentration. The young plants of barley are treated by spraying the active ingredient prepared as described above. Control plants are treated only with an aqueous solution of Acetone/Dimethyl sulfoxide/Tween® 80. After 24 hours, the plants are contaminated by spraying the leaves with an aqueous suspension of Pyrenophora teres spores.

In data set [6] the test system is Septoria tritici. Put plainly: In vivo preventive test on Septoria tritici (wheat). The following applies: 500 ppm, wheat plants, preventive spray, evaluated 24 days after inoculation. As to the method: as §1, with “E:” for “A:”, “Septoria tritici (Wheat)” for “Alternaria brassicae (Leaf Spot on Radish)”, “wheat” for “radish”, “Septoria tritici” for “Alternaria brassicae”, “72 hours at 18° C. and at 100% relative humidity and then for 21” for “6”, “90%” for “100%”

The test system of data set [7] is Uromyces appendiculatus. In words: In vivo preventive test on Uromyces appendiculatus (bean rust). The settings on record: bean plants. How it is done:
Example G: In Vivo Preventive Test on Uromyces appendiculatus (Bean Rust) [table] The active ingredients are made soluble and homogenized in a mixture of Dimethyl sulfoxide/Acetone/Tween®80 and then diluted in water to the desired concentration. The young plants of bean are treated by spraying the active ingredient prepared as described above. Control plants are treated only with an aqueous solution of Acetone/Dimethyl sulfoxide/Tween® 80. After 24 hours, the plants are contaminated by spraying the leaves with an aqueous suspension of Uromyces appendiculatus spores.

Data set [8] concerns Puccinia recondita. Put plainly: In vivo preventive test on Puccinia recondita (brown rust on wheat). The following applies: 500 ppm, wheat plants, preventive spray, evaluated 11 days after inoculation. As to the method:
Example C: In Vivo Preventive Test on Puccinia recondita (Brown Rust on Wheat) [table] The active ingredients are made soluble and homogenized in a mixture of Dimethyl sulfoxide/Acetone/Tween®80 and then diluted in water to the desired concentration. The young plants of wheat are treated by spraying the active ingredient prepared as described above. Control plants are treated only with an aqueous solution of Acetone/Dimethyl sulfoxide/Tween® 80. After 24 hours, the plants are contaminated by spraying the leaves with an aqueous suspension of Puccinia recondita spores.

For data set [9], the system named is Fusarium nivale (var. majus). In words: Efficacy against Fusarium nivale (var. majus) (wheat), curative test. It counts as in vivo. The settings on record: for Efficacy: evaluated 5 days after inoculation. As to the method:
Example I: Efficacy Against Fusarium nivale (Var. Majus) (Wheat) [table] To produce a suitable preparation of active compound, 1 part by weight of active compound or active compound combination is mixed with the stated amounts of solvent and emulsifier, and the concentrate is diluted with water to the desired concentration. […] After the spray coating has dried on, the plants remain in a greenhouse under translucent incubation cloches at a temperature of approximately 10° C. and a relative atmospheric humidity of approximately 100%.

The subject of data set [10] is Pyricularia oryzae. The data set is classed as in vivo. The following applies: dose 500 ppm, rice plants, preventive spray, evaluated 6 days after inoculation.
Setting [11] is: Table B, 500 ppm, preventive spray, evaluated 4 to 5 days after inoculation.
Setting [12] is: Table G, 500 ppm, preventive spray, evaluated 11 days after inoculation.

For `Cn1nc(C(F)F)c(C(=O)N(Cc2cccc3c2C2C=CC3C2)C2CC2)c1F` (stereo not drawn) [I.04], the Efficacy in data set [1] was found to be 83%; in [2], 100%; in [3] (setting [11]) it was 97%; in data set [5], 100%; in data set [6] it was 98%. For the same molecule, the logP in data set [4] worked out at 3.55.

Turning to `Cn1nc(C(F)F)c(C(=S)N(Cc2cccc3c2C2CCC3C2=C(Cl)Cl)C2CC2)c1Cl` (stereo not drawn) [I.09], the values for the Efficacy in data set [7] (setting [12]) and in data set [2] were 78% and 98%, respectively. For the same molecule, the logP in data set [4] came to 5.39.

In the case of `Cn1cc(C(=O)N(Cc2cccc3c2C2CCC3C2=C(Cl)Cl)C2CC2)c(C(F)F)n1` (stereo not drawn) [I.07], the Efficacy in data set [1] is 97%; in [2] it was 98%; in [5], 97%; in [6], 97%. The same molecule returned a logP in [4] of 4.13.

For `Cn1nc(C(F)F)c(C(=S)N(Cc2cccc3c2C2CCC3C2)C2CC2)c1F` (stereo not drawn) [I.02], the Efficacy in data set [7] (setting [12]) came out at 100%; in [1], 79%; in data set [8], 97%; in data set [2], 100%; in [3] (setting [11]) it was 97%; in [6], 100%. Also, the logP in data set [4] stood at 4.64.

Regarding `Cn1nc(C(F)F)c(C(=S)N(Cc2cccc3c2C2CCC3C2=C(Cl)Cl)C2CC2)c1F` (stereo not drawn) [I.11], the Efficacy in [7] (setting [12]) turned out to be 84%; in data set [8] it was 88%; in data set [2] it was 100%; in [3] (setting [11]), 100%; in data set [6] it was 100%. In [4], this molecule showed a logP of 5.23.

As to `Cn1nc(C(F)F)c(C(=O)N(Cc2cccc3c2C2CCC3C2=C(Cl)Cl)C2CC2)c1F` (stereo not drawn) [I.08, N-cyclopropyl-N-([9-(dichloromethylene)-1,2,3,4-tetrahydro-1,4-methanonaphthalen-5-yl]methyl)-3-(difluoromethyl)-5-fluoro-1-methyl-1H-pyrazole-4-carboxamide], the Efficacy in [1] is reported as 100%; in [8] it was 83%; in [2] it was 100%; in [3] (setting [11]) it was 100%; in data set [5], 97%; in data set [6] it was 100%. In data set [4], this molecule gave a chromatographic logP of 4.51.

Turning to `Cn1nc(C(F)F)c(C(=O)N(Cc2cccc3c2C2CCC3C2)C2CC2)c1F` (stereo not drawn) [I.01], the Efficacy in [7] (Table G2, dose 100 ppm) was 99%; in [7] (Table G2, dose 100 ppm, listed as 1.01), “at least 95%”; in data set [1], 81%; in data set [8], 98%; in data set [2], 100%; in data set [9] (dose 250 ppm), 100%. For the same molecule, the Efficacy in data set [9] (dose 500 ppm) is on record as 100%; in [3] (Table B2, dose 100 ppm), 98%; in data set [3] (Table B2, dose 500 ppm) it was 100/100; in [3] (setting [11]), 100%; in data set [10] it was 75%; in data set [10] (listed as 1.01) it was “at least 70%”. Moreover, the Efficacy in data set [5] and in [6] was 100% in each case. Besides, the protection result in data set [9] (dose of 250 ppm and 500 ppm) is on record as “total protection”; in [3] (dose of 100 ppm and 500 ppm), “at least 98%”. This molecule also gave a logP in data set [4] of 3.87.

What is called logP is the decadic logarithm of the partition coefficient of the neutral form, usually between octanol and water. Low values mean lower lipophilicity, high ones higher lipophilicity. As usually defined, the chromatographic logP is lipophilicity estimated from chromatographic retention. The low end stands for a more hydrophilic compound, the high end for a more lipophilic compound.
